≈ marks a conversion by molar mass, not a printed value.
Experiments:
Assay in all cases: MIC by broth microdilution in CAMHB, clinical isolates
Type in all cases: cell-based
Mycobacterium abscessus = system: Mycobacterium abscessus
Procedure: (§1) A total of 24 clinical isolates of Mycobacterium abscessus, 22 clinical isolates of Mycobacterium chelonae and 20 clinical isolates of Mycobacterium fortuitum were tested in the study. The study also used the antibiotics tigecycline, doxycycline and amikacin for comparison purposes. […] Amikacin was dissolved in DMSO prior to freezing at −20° C. For susceptibility testing, stock solutions of antibiotic compounds were serially diluted in 50 μL of cation adjusted Mueller-Hinton broth (CAMHB) in polystryrene 96-well round-bottom microtiter plates. To each well, 50 μL of the appropriate mycobacterial cell suspension was added to yield a final concentration of about 1×10^5 CFU/mL. The inoculum used for each isolate was measured by titration in saline with Tween 80 and plating on MH agar. The Mycobacterium abscessus and Mycobacterium fortuitum titer plates were incubated at 37° C. in ambient air for 3-4 days and 5-7 days, respectively. The Mycobacterium chelonae titer plates were incubated at 30° C. in ambient air for 3-5 days. Each isolate was tested at least in duplicate. The MIC was defined as the lowest concentration of antimicrobial agent yielding no visible turbidity.

Mycobacterium chelonae = system: Mycobacterium chelonae
Procedure: as §1

Mycobacterium fortuitum = system: Mycobacterium fortuitum
Procedure: as §1

[1] = 24 clinical isolates (tigecycline: subset N=14)

SMILES: C[C@H]1c2cccc(O)c2C(=O)C2=C(O)[C@]3(O)C(=O)C(C(N)=O)=C(O)[C@@H](N(C)C)[C@@H]3[C@@H](O)[C@@H]21 [Doxycycline, doxycycline]
- MIC50 (Mycobacterium abscessus; [1]): >64 µg/mL
- MIC90 (Mycobacterium abscessus; [1]): >64 µg/mL
- MIC (Mycobacterium abscessus; isolate No. 1, BB2): >64 µg/mL
- MIC (Mycobacterium abscessus; isolate No. 2, BB4): 2 µg/mL (≈ 4.5 µM)
- MIC (Mycobacterium abscessus; isolate No. 3, 5922): 16 µg/mL (≈ 36 µM)
- MIC (Mycobacterium abscessus; isolate No. 4, BB3): 4 µg/mL (≈ 9 µM)
- MIC (Mycobacterium abscessus; isolate No. 5, BB6): 16 µg/mL (≈ 36 µM)
- MIC (Mycobacterium abscessus; isolate No. 6, 5908): >64 µg/mL
- MIC (Mycobacterium abscessus; isolate No. 7, BB7): 0.25 µg/mL (≈ 0.563 µM)
- MIC (Mycobacterium abscessus; isolate No. 8, 6031): 2 µg/mL (≈ 4.5 µM)
- MIC (Mycobacterium abscessus; isolate No. 9, 5785): 2 µg/mL (≈ 4.5 µM)
- MIC (Mycobacterium abscessus; isolate No. 10, BB8): >64 µg/mL
- MIC (Mycobacterium abscessus; isolate No. 11, 6111): >64 µg/mL
- MIC (Mycobacterium abscessus; isolate No. 12, 6005): >64 µg/mL
- MIC (Mycobacterium abscessus; isolate No. 13, 5605): >64 µg/mL
- MIC (Mycobacterium abscessus; isolate No. 14, 5931): 16 µg/mL (≈ 36 µM)
- MIC (Mycobacterium abscessus; isolate No. 15, BB1): >64 µg/mL
- MIC (Mycobacterium abscessus; isolate No. 16, BB5): >64 µg/mL
- MIC (Mycobacterium abscessus; isolate No. 17, 5812): >64 µg/mL
- MIC (Mycobacterium abscessus; isolate No. 18, 5901): >64 µg/mL
- MIC (Mycobacterium abscessus; isolate No. 19, 5960): 8 µg/mL (≈ 18 µM)
- MIC (Mycobacterium abscessus; isolate No. 20, 6142): >64 µg/mL
- MIC (Mycobacterium abscessus; isolate No. 21, 5922): 32 µg/mL (≈ 72 µM)
- MIC (Mycobacterium abscessus; isolate No. 22, LT 949): >64 µg/mL
- MIC (Mycobacterium abscessus; isolate No. 23, 6025): >64 µg/mL
- MIC (Mycobacterium abscessus; isolate No. 24, 6153): >64 µg/mL
- MIC50 (Mycobacterium chelonae; 22 clinical isolates): 32 µg/mL (≈ 72 µM)
- MIC90 (Mycobacterium chelonae; 22 clinical isolates): 64 µg/mL (≈ 144 µM)
- MIC (Mycobacterium chelonae; isolate No. 1, MC 7323): 64 µg/mL (≈ 144 µM)
- MIC (Mycobacterium chelonae; isolate No. 2, MC 7534): 32 µg/mL (≈ 72 µM)
- MIC (Mycobacterium chelonae; isolate No. 3, MC 7368): 64 µg/mL (≈ 144 µM)
- MIC (Mycobacterium chelonae; isolate No. 4, MC 7514): 32 µg/mL (≈ 72 µM)
- MIC (Mycobacterium chelonae; isolate No. 5, MC 7584): 64 µg/mL (≈ 144 µM)
- MIC (Mycobacterium chelonae; isolate No. 6, MC 7192): 16 µg/mL (≈ 36 µM)
- MIC (Mycobacterium chelonae; isolate No. 7, MC 7466): 32 µg/mL (≈ 72 µM)
- MIC (Mycobacterium chelonae; isolate No. 8, MC 7533): 64 µg/mL (≈ 144 µM)
- MIC (Mycobacterium chelonae; isolate No. 9, MC 7579): 16 µg/mL (≈ 36 µM)
- MIC (Mycobacterium chelonae; isolate No. 10, MC 7614): 64 µg/mL (≈ 144 µM)
- MIC (Mycobacterium chelonae; isolate No. 11, MC 7414): 32 µg/mL (≈ 72 µM)
- MIC (Mycobacterium chelonae; isolate No. 12, MC 7313): 32 µg/mL (≈ 72 µM)
- MIC (Mycobacterium chelonae; isolate No. 13, MC 7281): 64 µg/mL (≈ 144 µM)
- MIC (Mycobacterium chelonae; isolate No. 14, MC 7328): 16 µg/mL (≈ 36 µM)
- MIC (Mycobacterium chelonae; isolate No. 15, MC 7294): 32 µg/mL (≈ 72 µM)
- MIC (Mycobacterium chelonae; isolate No. 16, MC 14-S-03): 64 µg/mL (≈ 144 µM)
- MIC (Mycobacterium chelonae; isolate No. 17, MC 14-S-04): 32 µg/mL (≈ 72 µM)
- MIC (Mycobacterium chelonae; isolate No. 18, MC 14-S-05): 32 µg/mL (≈ 72 µM)
- MIC (Mycobacterium chelonae; isolate No. 19, MC 14-S-06): 64 µg/mL (≈ 144 µM)
- MIC (Mycobacterium chelonae; isolate No. 20, MC 14-S-07): 32 µg/mL (≈ 72 µM)
- MIC (Mycobacterium chelonae; isolate No. 21, MC 35757): 32 µg/mL (≈ 72 µM)
- MIC (Mycobacterium chelonae; isolate No. 22, MC 7302): 64 µg/mL (≈ 144 µM)
- MIC50 (Mycobacterium fortuitum; 20 clinical isolates): 8 µg/mL (≈ 18 µM)
- MIC90 (Mycobacterium fortuitum; 20 clinical isolates): 64 µg/mL (≈ 144 µM)
- MIC (Mycobacterium fortuitum; isolate No. 1, 3349): 16 µg/mL (≈ 36 µM)
- MIC (Mycobacterium fortuitum; isolate No. 2, 3499): 0.06 µg/mL (≈ 0.135 µM)
- MIC (Mycobacterium fortuitum; isolate No. 3, 2797): >64 µg/mL
- MIC (Mycobacterium fortuitum; isolate No. 4, 32): 0.125 µg/mL (≈ 0.281 µM)
- MIC (Mycobacterium fortuitum; isolate No. 5, 33): 0.125 µg/mL (≈ 0.281 µM)
- MIC (Mycobacterium fortuitum; isolate No. 6, 3489): 8 µg/mL (≈ 18 µM)
- MIC (Mycobacterium fortuitum; isolate No. 7, 3491): <0.06 µg/mL
- MIC (Mycobacterium fortuitum; isolate No. 8, 54): <0.06 µg/mL
- MIC (Mycobacterium fortuitum; isolate No. 9, 38): 0.5 µg/mL (≈ 1.13 µM)
- MIC (Mycobacterium fortuitum; isolate No. 10, 36): 0.125 µg/mL (≈ 0.281 µM)
